A short description of data set [1]: Cmax in Sprague-Dawley rat at […], iv by LC-MS/MS analysis. Also on record: dose 2.5 mg/kg, route intravenous. The data set is classed as ADME, organism-based. To be noted: in vivo.
Data set [2] can be described thus: Tmax in Sprague-Dawley rat at 10 mg/kg, po by LC-MS/MS analysis. It counts as ADME, organism-based. To be noted: in vivo.
The nature of data set [3]: Half life in Sprague-Dawley rat at […], iv by LC-MS/MS analysis. The settings on record: in vivo. The data set is classed as ADME, organism-based.
Data set [4] is described as follows: Tmax in Sprague-Dawley rat at […], iv by LC-MS/MS analysis. To be noted: in vivo. It counts as ADME, organism-based.
Data set [5] in a line: Cmax in Sprague-Dawley rat at 10 mg/kg, po by LC-MS/MS analysis. Also on record: dose 10 mg/kg, route oral. It counts as ADME, organism-based. The settings on record: in vivo.
The nature of data set [6]: Half life in human liver microsomes at 0.5 uM by LC-MS/MS analysis. It counts as ADME, Microsome. Background: Liver microsomes are a subcellular fraction often used to study metabolism.
Data set [7] is described as follows: Clearance in Sprague-Dawley rat at […], iv by LC-MS/MS analysis. To be noted: in vivo. It counts as ADME, organism-based.
A short description of data set [8]: AUC (0 to infinity) in Sprague-Dawley rat at […], iv by LC-MS/MS analysis. The settings on record: in vivo. It counts as ADME, organism-based. Also on record: dose 2.5 mg/kg, time infinity, route intravenous.
Data set [9] in a line: AUC (0 to infinity) in Sprague-Dawley rat at 10 mg/kg, po by LC-MS/MS analysis. Also on record: dose 10 mg/kg, route oral, time infinity. To be noted: in vivo. The data set is classed as ADME, organism-based.
Data set [10] is described as follows: Oral bioavailability in Sprague-Dawley rat at 10 mg/kg by LC-MS/MS analysis. It counts as ADME, organism-based. The settings on record: in vivo.
Data set [11] can be described thus: Volume of distribution at steady state in Sprague-Dawley rat at […], iv by LC-MS/MS analysis. It counts as ADME, organism-based. The settings on record: in vivo, read-out: Vdss.
Data set [12] in a line: AUC (0 to t) in Sprague-Dawley rat at […], iv by LC-MS/MS analysis. The data set is classed as ADME, organism-based. The settings on record: in vivo.
Data set [13] can be described thus: AUC (0 to t) in Sprague-Dawley rat at 10 mg/kg, po by LC-MS/MS analysis. It counts as ADME, organism-based. To be noted: in vivo.

The values that follow come from ChEMBL document CHEMBL4330078, “Discovery of potent Pan-Raf inhibitors with increased solubility to overcome drug resistance” (Eur J Med Chem, 2019).

Usually Cmax stands for the highest concentration seen after dosing. One may read the Tmax as the time at which the peak concentration occurs. As a reminder, the half-life is how long it takes for the measured level to halve. The term clearance denotes a measure of how efficiently the substance is removed, as volume per time. A low value points to a low capacity for elimination. As usually defined, the AUC(0-inf) is the area under the concentration-time curve extrapolated to infinity. Low readings indicate low exposure, high ones high exposure. One may read the bioavailability as the share of a dose that reaches the circulation, judged against a reference dose that is usually intravenous. High values mean much systemic uptake, low ones little systemic uptake. By AUC(0-t) is commonly meant the area under the concentration-time curve up to a stated or last time point. Lower therefore signals less exposure. Turning to `Cc1ccc(C(=O)Nc2ccc(OCC3CCN(C)CC3)c(C(F)(F)F)c2)cc1NC(=O)C1(c2ncnc3[nH]ccc23)CC1`, the values for the Cmax in data set [1] and in data set [5] were 272 ng/mL and 72.1 ng/mL, respectively. Also, the Tmax in data set [2] came to 4 h; in data set [4], 4.98 min. In addition, in [3], the half-life was 7.7 h. The same compound had a half-life at 0.5 µM in data set [6] of 6.5 h. Also, the clearance in data set [7] is 68.3 mL/min/kg. In addition, the AUC(0-inf) in data set [8] was 607 ng·h/mL; in data set [9], 522 ng·h/mL. For the same compound, the bioavailability in data set [10] was 22.9%. In addition, in [11], the Vd is 45.7 L/kg. Moreover, the values for the AUC(0-t) in [12] and in data set [13] were 549 ng·h/mL and 503 ng·h/mL, respectively.

Compound `CNC(=O)c1cc(Oc2ccc(NC(=O)Nc3ccc(Cl)c(C(F)(F)F)c3)cc2)ccn1` [SORAFENIB] showed a half-life at 0.5 µM in data set [6] of 5.6 h.
